ChEMBL document CHEMBL4808148, “HDAC6 screening dataset using tau-based substrate in an enzymatic assay yields selective inhibitors and activators” (2021)

These compounds were tested against T1, Protein deacetylase HDAC6 (Homo sapiens) (UniProt Q9UBN7). Conditions: at 10 µM.
T1 sequence (whole entry): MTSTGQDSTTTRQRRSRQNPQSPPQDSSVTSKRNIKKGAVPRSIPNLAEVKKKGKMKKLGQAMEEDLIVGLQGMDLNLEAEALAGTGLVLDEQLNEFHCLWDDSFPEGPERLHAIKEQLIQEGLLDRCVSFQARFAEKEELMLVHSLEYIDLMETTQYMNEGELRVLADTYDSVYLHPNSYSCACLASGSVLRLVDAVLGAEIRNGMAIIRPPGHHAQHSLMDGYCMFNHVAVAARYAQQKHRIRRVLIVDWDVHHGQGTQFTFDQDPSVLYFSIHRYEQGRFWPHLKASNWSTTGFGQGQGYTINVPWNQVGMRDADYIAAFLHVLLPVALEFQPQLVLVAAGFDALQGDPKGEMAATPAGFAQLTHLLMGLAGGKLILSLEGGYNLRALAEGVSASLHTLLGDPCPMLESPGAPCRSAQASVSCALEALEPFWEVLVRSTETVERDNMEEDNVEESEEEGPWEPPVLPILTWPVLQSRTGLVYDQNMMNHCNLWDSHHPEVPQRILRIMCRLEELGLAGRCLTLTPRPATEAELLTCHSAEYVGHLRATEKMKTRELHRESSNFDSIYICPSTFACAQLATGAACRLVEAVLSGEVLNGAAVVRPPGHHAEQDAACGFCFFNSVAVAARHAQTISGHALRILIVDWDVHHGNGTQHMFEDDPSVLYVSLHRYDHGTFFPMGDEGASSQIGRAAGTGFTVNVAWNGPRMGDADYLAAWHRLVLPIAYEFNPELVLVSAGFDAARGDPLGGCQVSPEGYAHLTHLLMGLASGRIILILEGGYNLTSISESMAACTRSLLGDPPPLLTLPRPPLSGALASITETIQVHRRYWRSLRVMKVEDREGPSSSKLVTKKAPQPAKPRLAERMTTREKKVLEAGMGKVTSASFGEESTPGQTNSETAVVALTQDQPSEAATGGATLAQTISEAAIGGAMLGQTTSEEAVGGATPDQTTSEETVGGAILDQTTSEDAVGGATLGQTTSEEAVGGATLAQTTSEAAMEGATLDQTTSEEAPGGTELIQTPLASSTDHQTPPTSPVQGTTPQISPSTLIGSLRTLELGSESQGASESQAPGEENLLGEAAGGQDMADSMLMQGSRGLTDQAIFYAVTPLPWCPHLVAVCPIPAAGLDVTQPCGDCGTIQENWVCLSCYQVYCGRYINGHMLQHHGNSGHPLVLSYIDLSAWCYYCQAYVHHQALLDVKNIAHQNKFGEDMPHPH

SMILES	inhibition
CC(C)COC(=O)c1ccc(N)cc1	82.1%
Nc1cc2c3ccccc3ccc2c2ccccc12	24.2%
NS(=O)(=O)c1cc2c(cc1Cl)N=C(CSCc1ccccc1)NS2(=O)=O	42.3%
O=C(Nc1ccc(Br)cc1)c1cc(Br)cc(Br)c1O	30.8%
CC(C)[C@H](C(=O)Nc1ccc(C(=O)NO)cc1)c1ccccc1	101%
O=C1Cc2c([nH]c3ccc(Br)cc23)-c2ccccc2N1	96.6%
CCC(=O)NO	37.4%
O=C(O)c1ccc2nc(-c3cc(Cl)cc(Cl)c3)oc2c1	88.2%
Cc1c(-c2ccc(O)cc2)n(Cc2ccc(OCCN3CCCCCC3)cc2)c2ccc(O)cc12	97.7%
C#C[C@]1(OC(C)=O)CC[C@H]2[C@@H]3CCC4=C/C(=N/O)CC[C@@H]4[C@H]3CC[C@@]21CC	17.1%
COc1ccc(N(C(=O)Oc2c(C)cccc2C)c2ccnc(Nc3ccc(N4CCN(C)CC4)cc3)n2)c(OC)c1	-5.43%
CN1CCN(c2ccc3nc(-c4c(N)c5c(F)cccc5[nH]c4=O)[nH]c3c2)CC1	63%
O=c1c(O)c(-c2ccc(O)c(O)c2)oc2cc(O)cc(O)c12	108%
N=C(NCCC[C@H](N)C(=O)O)N[N+](=O)[O-]	0.71%
CN1CCc2c(c3ccccc3n2Cc2ccc(C(=O)NO)cc2)C1	99.5%
OCCOCCN1CCN(C(c2ccccc2)c2ccc(Cl)cc2)CC1 (configuration not stated)	-6.68%
COc1ccc(-c2nc(N3CCOCC3)c3sc(CN(C)c4ncc(C(=O)NO)cn4)cc3n2)cn1	104%
CC(C)OC(=O)Nc1cccc(Cl)c1	73%
CCN(CC)C(=O)Nc1ccc(OCC(O)CNC(C)(C)C)c(C(C)=O)c1 (configuration not stated)	27.1%
Nc1nc(N)c(N=O)c(OCC2CCCCC2)n1	83.5%
Cc1cc(O)c2c(c1)C(=O)c1cccc(O)c1C2=O	65.1%
Nc1ccc(/N=N/c2ccccc2)c(N)n1	106%
COc1ccc(-c2coc3cc(O)cc(O)c3c2=O)cc1	101%
c1ccc2sc(SNC3CCCCC3)nc2c1	23.2%

SMILES	inhibition
Cc1ccc(NC(=O)c2ccc(CN3CCN(C)CC3)cc2)cc1Nc1nc(-c2cccnc2)cs1	22.6%
CC(=O)Oc1ccccc1C(=O)Nc1ccccc1	61.5%
Cc1cc(C)c(/C=C2\C(=O)Nc3ccccc32)[nH]1	36.4%
CCOc1ccc(S(=O)(=O)O)c2cccnc12	-1.18%
O=C(Nc1ccc([N+](=O)[O-])cc1Cl)c1cc(Cl)ccc1O	42.3%
NS(=O)(=O)c1nn2cc(-c3ccccc3)nc2s1	81.9%
C=CC(C)(C)c1cc(/C=C/C(=O)c2ccc(O)cc2)c(OC)cc1O	52.1%
CN(C)CC/C=C1\c2ccccc2Sc2ccc(Cl)cc21	94.5%
O=C1OC2(c3cc(I)c(O)c(I)c3Oc3c2cc(I)c(O)c3I)c2c(Cl)c(Cl)c(Cl)c(Cl)c21	68.7%
CN1CCCN=C1/C=C/c1cccc(O)c1	53.6%
O=C1NC(=O)/C(=C/c2ccc(-c3ccc(F)cc3O)o2)S1	94.9%
c1ccc2c(c1)Nc1ccccc1S2	71.8%
CN(Cc1ccccc1)C(=O)[C@H](Cc1ccc2ccccc2c1)NC(=O)[C@@H]1C[C@@H](O)CN1C(=O)c1cn(C)c2ccccc12	6.39%
COc1ccccc1OCC(O)COC(N)=O (configuration not stated)	8.29%
Cn1ccc2cc(NC(=O)Nc3cccnc3)ccc21	50.6%
CC(C)c1ccc2oc3nc(N)c(C(=O)O)cc3c(=O)c2c1	108%
FC(F)(F)c1cc(NC(=S)Nc2ccc(Br)cc2-c2nnn[nH]2)cc(C(F)(F)F)c1	31.7%
O=C(N/N=C/c1ccccc1O)c1ccccc1O	107%
COc1ccc(-c2cc(=O)c3c(O)cc(O)cc3o2)cc1O	102%
Cc1cc(C)c(N)c(C#Cc2cccc(F)c2)n1	74.2%
O=C(/C=C/c1ccc2c(c1)OCO2)N1CCCCC1	89.8%
CC(=O)Oc1ccccc1C(=O)Nc1ncc([N+](=O)[O-])s1	110%
CC1(C)CNc2cc(NC(=O)c3cccnc3NCc3ccncc3)ccc21	78.2%
